# Source: ChEMBL document CHEMBL1201862, “PubChem BioAssay data set” (2004)
# Activity calls are given as the source filed them.
# Experiments:
# Beta-galactosidase = Beta-galactosidase (Escherichia coli, UniProt Q8VNN2); assay: Dose response counterscreen for EBI2 assay utilizing the enzyme, b-galactosidase.; type: functional
# cells [1] = type: functional, cell-based
# cells [2] = type: functional, cell-based; remark: listed apart in the source
# [3] = biological target: Ras and Rab interactor 1/Tyrosine-protein kinase ABL1 (Homo sapiens, UniProt P00519+Q13671); type: functional;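 also: biochemical TR-FRET dose-response test measuring inhibition of binding between Rin1 and Abl proteins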
# [4] = blockers of HIV-1 envelope-mediated cell-cell fusion – cherry-pick, dose response (AID 652057); type: functional, cell-based
# [5] = viability loss in CEM21 cells – cell-based, CellTiter-Glo luminescence, cherry-picked, cytotoxicity control for viral fusion inhibitor project, dose response (AID 652042); type: functional;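 also: potency for signal decrease meaning cytotoxicity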
# [6] = blockers of HIV-1 ZM109 envelope-driven cell-cell fusion – HeLa effector, CEM target cells, luciferase, cherry-pick, dose response (AID 652058); type: functional, cell-based;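 also: luciferase signal from HIV-1 Env mediated cell-cell fusion of effector and target cells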
# [7] = off-target signal loss in HeLa-CEM21 co-culture – HeLa F-luc CTL cells, cherry-picked, counter-screen for HIV-1 Env fusion inhibitor project, dose response (AID 652040); type: functional, cell-based;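 also: potency for signal decrease marking cytotoxic or nonspecific inhibition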
# [8] = HIV-1 AD8 envelope cell-cell fusion blockers – cherry-pick, dose response (AID 652062); type: functional, cell-based;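 also: luciferase signal from cell-cell fusion driven by HIV-1 clade B AD8 Env; potency is for inhibitors of fusion seen as a drop in luminescence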
# Mu-type opioid receptor = Mu-type opioid receptor (Homo sapiens, UniProt P35372); type: functional, cell-based;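 also: U2OS cells with beta-arrestin recruitment to OPRM1 by beta-gal complementation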
# [9] = biological target: 5-hydroxytryptamine receptor 2A (Mus musculus, UniProt P35363); type: functional, cell-based;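 also: CHO-K1 cells with tagged receptor and beta-arrestin; agonist potency measured as compound-induced activation of the receptor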
# [10] = Luminescence Cell-Based Dose Retest to Confirm Inhibitors of Cancer Stem Cells. [Related pubchem assays (depositor defined):AID2717, AID2721]; type: functional; conditions: Homo sapiens
# Cysteine protease ATG4B = biological target: T1, Cysteine protease ATG4B (Homo sapiens, UniProt Q9Y4P1); type: functional;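 also: Fluorescence-based dose-response confirmation assay measuring inhibition of ATG4B activity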
# T1 sequence (Q9Y4P1 whole entry): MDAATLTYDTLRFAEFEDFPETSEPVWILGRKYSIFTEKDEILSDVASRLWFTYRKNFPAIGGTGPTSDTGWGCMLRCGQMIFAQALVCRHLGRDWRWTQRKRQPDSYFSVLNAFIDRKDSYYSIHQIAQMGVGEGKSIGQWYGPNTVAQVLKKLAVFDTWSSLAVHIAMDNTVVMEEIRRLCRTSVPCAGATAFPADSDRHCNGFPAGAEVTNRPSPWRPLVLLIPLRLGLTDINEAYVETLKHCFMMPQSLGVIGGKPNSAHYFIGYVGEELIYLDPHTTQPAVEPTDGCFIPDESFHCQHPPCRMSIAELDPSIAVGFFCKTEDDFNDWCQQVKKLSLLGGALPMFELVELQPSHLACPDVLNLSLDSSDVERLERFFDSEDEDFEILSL
# Phospholipase A2 = Phospholipase A2 (Homo sapiens, UniProt P04054); type: functional;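 also: confirmatory dose-response counterscreen on phospholipase A2, testing hits that came from an ultra-high-throughput screen for ATG4B inhibitors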
# [11] = biological target: DNA repair and recombination protein RAD54-like (Homo sapiens, UniProt Q92698); assay: RAD54 Holliday junction migration blockers – biochemical, fluorescence, cherry-picked samples, dose series, confirmation (AID 651657); type: functional
# Chain of DNA repair and recombination protein RAD54-like (Q92698 whole entry): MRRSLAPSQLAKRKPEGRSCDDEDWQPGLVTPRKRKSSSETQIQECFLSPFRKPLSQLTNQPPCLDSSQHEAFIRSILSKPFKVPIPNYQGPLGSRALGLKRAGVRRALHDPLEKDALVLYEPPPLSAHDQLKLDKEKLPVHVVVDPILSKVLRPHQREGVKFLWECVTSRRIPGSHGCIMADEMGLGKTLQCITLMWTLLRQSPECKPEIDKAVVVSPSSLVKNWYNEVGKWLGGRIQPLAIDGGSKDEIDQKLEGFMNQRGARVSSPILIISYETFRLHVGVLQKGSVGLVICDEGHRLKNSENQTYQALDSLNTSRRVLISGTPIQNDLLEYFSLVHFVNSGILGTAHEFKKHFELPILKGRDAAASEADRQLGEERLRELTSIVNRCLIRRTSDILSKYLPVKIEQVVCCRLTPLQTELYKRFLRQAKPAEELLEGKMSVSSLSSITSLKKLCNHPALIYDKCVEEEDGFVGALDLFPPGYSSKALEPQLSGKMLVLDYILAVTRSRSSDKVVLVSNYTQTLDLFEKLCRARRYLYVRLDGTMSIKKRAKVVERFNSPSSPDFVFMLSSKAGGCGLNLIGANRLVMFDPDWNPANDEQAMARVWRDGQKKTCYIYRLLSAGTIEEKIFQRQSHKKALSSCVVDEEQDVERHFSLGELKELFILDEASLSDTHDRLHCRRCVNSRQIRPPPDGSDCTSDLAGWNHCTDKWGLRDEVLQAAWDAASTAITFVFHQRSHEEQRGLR
# Chain of Ras and Rab interactor 1/Tyrosine-protein kinase ABL1 (P00519 whole entry, the tested form may be a part): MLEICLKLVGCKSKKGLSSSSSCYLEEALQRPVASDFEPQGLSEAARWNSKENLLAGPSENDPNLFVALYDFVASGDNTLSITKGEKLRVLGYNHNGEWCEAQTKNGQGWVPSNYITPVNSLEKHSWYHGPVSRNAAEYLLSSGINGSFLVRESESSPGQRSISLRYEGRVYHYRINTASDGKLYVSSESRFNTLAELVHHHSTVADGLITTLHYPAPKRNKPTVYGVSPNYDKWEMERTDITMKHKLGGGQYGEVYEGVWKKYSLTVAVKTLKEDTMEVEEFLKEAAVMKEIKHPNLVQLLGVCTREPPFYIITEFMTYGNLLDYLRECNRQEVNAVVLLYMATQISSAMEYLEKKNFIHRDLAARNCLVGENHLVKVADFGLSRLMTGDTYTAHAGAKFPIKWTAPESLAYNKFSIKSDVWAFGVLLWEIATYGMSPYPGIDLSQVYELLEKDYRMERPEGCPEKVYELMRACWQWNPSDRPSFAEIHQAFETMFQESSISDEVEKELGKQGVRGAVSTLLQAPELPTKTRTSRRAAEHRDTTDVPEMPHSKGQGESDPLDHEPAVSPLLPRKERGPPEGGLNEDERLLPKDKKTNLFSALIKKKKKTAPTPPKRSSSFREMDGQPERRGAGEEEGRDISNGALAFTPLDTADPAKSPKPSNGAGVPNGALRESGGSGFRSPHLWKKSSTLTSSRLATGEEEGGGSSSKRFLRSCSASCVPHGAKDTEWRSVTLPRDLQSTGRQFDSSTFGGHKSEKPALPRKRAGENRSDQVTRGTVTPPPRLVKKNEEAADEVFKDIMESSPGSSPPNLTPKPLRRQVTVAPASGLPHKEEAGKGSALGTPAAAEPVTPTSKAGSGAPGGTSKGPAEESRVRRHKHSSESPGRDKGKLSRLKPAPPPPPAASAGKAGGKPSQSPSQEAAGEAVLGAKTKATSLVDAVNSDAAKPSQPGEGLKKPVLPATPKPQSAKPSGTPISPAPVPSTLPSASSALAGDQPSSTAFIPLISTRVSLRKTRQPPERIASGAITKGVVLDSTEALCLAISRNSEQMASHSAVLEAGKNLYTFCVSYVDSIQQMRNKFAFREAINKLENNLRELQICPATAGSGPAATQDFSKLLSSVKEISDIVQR
# Chain of Ras and Rab interactor 1/Tyrosine-protein kinase ABL1 (Q13671 whole entry, the tested form may be a part): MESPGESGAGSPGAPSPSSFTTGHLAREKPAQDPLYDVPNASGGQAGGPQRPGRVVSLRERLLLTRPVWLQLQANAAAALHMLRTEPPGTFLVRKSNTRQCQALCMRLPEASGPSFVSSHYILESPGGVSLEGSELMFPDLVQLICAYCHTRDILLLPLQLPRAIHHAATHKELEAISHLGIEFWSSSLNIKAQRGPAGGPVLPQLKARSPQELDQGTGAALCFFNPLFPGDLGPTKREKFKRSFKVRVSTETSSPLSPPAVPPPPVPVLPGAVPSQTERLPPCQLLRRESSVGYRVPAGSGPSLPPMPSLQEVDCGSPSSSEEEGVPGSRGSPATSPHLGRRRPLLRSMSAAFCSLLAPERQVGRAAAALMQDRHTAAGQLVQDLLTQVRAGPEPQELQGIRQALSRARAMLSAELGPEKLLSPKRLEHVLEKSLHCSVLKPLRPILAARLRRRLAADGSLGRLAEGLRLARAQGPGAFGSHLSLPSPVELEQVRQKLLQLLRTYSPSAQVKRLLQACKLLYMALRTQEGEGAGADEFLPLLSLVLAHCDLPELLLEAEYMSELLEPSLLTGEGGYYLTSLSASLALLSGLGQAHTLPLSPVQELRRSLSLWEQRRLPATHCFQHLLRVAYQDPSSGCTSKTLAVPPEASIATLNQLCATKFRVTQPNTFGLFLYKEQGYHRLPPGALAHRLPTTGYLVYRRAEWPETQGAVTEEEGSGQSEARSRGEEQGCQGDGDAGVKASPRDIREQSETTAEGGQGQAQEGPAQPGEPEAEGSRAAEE
# Chain of Mu-type opioid receptor (P35372 whole entry): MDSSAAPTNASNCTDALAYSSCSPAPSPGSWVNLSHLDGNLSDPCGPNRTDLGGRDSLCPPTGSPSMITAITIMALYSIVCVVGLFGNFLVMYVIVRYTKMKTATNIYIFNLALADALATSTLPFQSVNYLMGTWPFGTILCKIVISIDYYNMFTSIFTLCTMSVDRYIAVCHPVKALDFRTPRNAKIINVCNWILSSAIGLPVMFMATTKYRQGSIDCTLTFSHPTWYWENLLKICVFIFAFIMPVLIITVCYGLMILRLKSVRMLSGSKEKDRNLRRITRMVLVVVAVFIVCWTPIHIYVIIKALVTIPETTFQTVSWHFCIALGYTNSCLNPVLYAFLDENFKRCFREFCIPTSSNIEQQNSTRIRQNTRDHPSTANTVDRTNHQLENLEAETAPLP
# Chain of Phospholipase A2 (P04054 whole entry): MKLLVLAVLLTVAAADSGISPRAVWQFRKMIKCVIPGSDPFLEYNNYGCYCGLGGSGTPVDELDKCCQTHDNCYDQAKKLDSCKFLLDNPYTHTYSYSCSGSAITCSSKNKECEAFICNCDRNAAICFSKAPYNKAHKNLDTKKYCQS
# Chain of 5-hydroxytryptamine receptor 2A (P35363 whole entry): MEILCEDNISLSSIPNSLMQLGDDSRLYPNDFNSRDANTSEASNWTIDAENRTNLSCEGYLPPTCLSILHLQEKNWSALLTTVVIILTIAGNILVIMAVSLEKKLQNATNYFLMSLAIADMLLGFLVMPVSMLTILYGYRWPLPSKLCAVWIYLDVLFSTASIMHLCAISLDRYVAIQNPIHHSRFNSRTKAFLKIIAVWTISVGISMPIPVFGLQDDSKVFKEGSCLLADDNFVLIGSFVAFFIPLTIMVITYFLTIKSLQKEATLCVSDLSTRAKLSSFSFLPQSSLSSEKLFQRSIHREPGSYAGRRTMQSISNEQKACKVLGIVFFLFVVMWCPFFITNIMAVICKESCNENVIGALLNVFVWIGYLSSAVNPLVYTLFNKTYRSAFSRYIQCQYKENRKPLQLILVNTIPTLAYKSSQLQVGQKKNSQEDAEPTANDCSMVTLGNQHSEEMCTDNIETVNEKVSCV
# Chain of Beta-galactosidase (Q8VNN2 whole entry): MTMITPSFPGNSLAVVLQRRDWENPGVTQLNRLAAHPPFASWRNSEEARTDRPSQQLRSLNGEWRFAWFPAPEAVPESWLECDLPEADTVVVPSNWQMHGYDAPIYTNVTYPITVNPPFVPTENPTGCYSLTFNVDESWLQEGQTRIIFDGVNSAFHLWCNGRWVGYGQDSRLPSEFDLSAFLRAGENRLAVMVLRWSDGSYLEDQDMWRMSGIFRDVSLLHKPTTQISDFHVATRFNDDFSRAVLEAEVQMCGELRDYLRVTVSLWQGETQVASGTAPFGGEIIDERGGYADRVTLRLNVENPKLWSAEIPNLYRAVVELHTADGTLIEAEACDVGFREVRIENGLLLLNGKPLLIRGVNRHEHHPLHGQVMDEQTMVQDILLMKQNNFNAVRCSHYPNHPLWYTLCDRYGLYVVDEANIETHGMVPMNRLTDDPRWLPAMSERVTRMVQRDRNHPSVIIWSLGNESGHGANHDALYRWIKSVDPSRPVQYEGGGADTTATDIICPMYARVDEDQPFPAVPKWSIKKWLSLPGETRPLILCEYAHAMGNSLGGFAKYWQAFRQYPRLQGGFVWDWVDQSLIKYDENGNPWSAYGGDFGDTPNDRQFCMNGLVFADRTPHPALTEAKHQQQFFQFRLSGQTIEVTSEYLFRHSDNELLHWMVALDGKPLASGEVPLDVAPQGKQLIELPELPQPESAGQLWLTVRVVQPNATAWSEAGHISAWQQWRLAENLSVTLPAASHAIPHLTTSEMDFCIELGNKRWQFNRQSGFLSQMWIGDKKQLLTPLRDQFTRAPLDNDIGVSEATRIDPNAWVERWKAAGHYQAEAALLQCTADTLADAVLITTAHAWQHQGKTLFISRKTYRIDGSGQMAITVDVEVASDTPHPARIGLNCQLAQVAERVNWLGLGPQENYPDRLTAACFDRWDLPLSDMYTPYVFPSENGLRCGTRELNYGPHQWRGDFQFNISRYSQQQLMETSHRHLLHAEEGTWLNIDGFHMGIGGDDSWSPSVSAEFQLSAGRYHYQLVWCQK
compound,measurement,setting,value
O=C(c1cc2ccccc2o1)N1CCN(S(=O)(=O)/C=C/c2ccccc2)CC1,IC50,Beta-galactosidase,> 80 µM (inactive)
CCCN1CN(CCc2ccccc2)CN=C1S,IC50,cells [1],> 29.9 µM (inactive)
same,EC50,cells [2],> 29.9 µM (inactive)
COc1ccc2oc(C(=O)NCC(c3ccco3)N(C)C)c(C)c2c1 (stereo not given),IC50,[3],3.82 µM (active)
COc1ccc(C2c3c(-c4ccccc4O)n[nH]c3C(=O)N2CCc2ccc(OC)c(OC)c2)cc1 (stereo not given),AC50,[4],1.94 µM (active)
same,AC50,[5],65.5 µM (active)
same,AC50,[6],2.44 µM (active)
same,AC50,[7],3.07 µM (active)
same,AC50,[8],1.17 µM (active)
O=C(Cc1ccc(NC(=O)C2CCN(C(=O)C3CCCC3)CC2)cc1)Nc1cccc(C(=O)N2CCCCC2)c1,IC50,[3],29.2 µM (inactive)
CCCN1CCO[C@@H]2c3cc(O)ccc3OC[C@H]21,EC50,Mu-type opioid receptor,92.5 µM (inactive)
same,EC50,[9],0.0216 µM (active)
CCC(=O)NC(=S)Nc1cccc(Cl)c1N1CCCCC1,AC50,[10],5.27 µM (active)
same,IC50,Cysteine protease ATG4B,6.09 µM (active)
same,IC50,Phospholipase A2,3.78 µM (active)
same,AC50,[4],17.3 µM (active)
same,AC50,[5],36.5 µM (active)
same,AC50,[7],> 70 µM (inactive)
same,AC50,[8],38.5 µM (active)
NNC(=O)c1oc2nc(-c3cccs3)cc(-c3ccco3)c2c1N,AC50,[11],16.6 µM (active)
